Assay results as given in paper PMC11406361, “Several orphan solute carriers functionally identified as organic cation transporters: Substrates specificity compared with known cation transporters” (The Journal of Biological Chemistry, 2024).

How the values were obtained:
OCT2 = OCT2 (Homo sapiens, UniProt O15244); details: 2.5 μM, 2 min, HEK293
Protocol: (§1) Typically discussed substrates of the proton organic-cation antiporter ([14]) are highlighted in dark green in Figure 1.
(§2) In preparation for transport experiments, 24-well plates were pre-coated with poly-D-lysine (Sigma-Aldrich) and 300,000 cells were plated per well and incubated for 48 h. Firstly, the 24-well plate was placed on a heating plate at 37 °C, and the cells were washed with 37 °C HBSS^+ buffer (Hank’s balanced salt solution supplemented with 10 mM Hepes and adjusted to pH 7.4; Thermo Fisher Scientific). The substance-of-interest, which was diluted in 37 °C HBSS^+ to a desired concentration, was added to the cells for exactly 2 min. […] The uptake was stopped with ice-cold HBSS^+, and the 24-well plate was removed from the heating plate. The cells were washed twice with the cold HBSS^+ before they were lysed for 15 min with 80% (v/v) acetonitrile containing the respective internal standard for mass spectrometry. For variations in seeded cell numbers between the cell lines, several wells were lysed in RIPA buffer and used for total protein quantification using a bicinchoninic assay ([74]) and bovine serum albumin as calibration.
(§3) The intracellular drug concentrations after transport experiments were analyzed by high-performance liquid chromatography coupled to tandem mass spectrometry analysis. The HPLC consisted of a Shimadzu Nexera HPLC System with a SIL-30AC autosampler, a LC-30AD pump, a CTO-20AC column oven, and a CBM-20A controller (Shimadzu). The reverse-phase chromatography of compounds was accomplished with a Brownlee SPP RP-Amide column with 4.6 × 100 mm inner dimensions, a particle size of 2.7 μm, and a preceding Phenomenex C-18 guard column. The mobile phase was composed of an organic additive with acetonitrile:methanol 6:1 (v/v) in total concentrations between 3% and 50% (v/v) and 0.1% (v/v) formic acid in the aqueous component of the eluent. During separation, the column oven was held at 40 °C and the mobile phase was maintained at a flow rate of 300 or 400 μl/min. After separation, the detection of substances was performed with an API 4000 tandem mass spectrometer (AB SCIEX, https://sciex.com/support/software-support/software-downloads), followed by quantification of results with the Analyst software (AB SCIEX, version 1.6.2). The composition of chromatographic conditions, as well as detailed mass spectrometric detection parameters, are listed in Table S5.
(§4) Transport-mediated net uptake was determined as fold-increase of transporter-overexpressing cells over empty vector–transfected control cells.

OCT1 = OCT1 (Homo sapiens, UniProt O15245); details: 2.5 μM, 2 min, HEK293
Protocol: as §1, §2, §3, §4

SLC47A1 = target: T1, SLC47A1 (Homo sapiens, UniProt Q96FL8); test: Uptake ratio screen, SLC47A1-overexpressing HEK293 over empty vector cells; assay type: cell-based; details: 2.5 μM, 2 min
T1 sequence (Q96FL8 1-570): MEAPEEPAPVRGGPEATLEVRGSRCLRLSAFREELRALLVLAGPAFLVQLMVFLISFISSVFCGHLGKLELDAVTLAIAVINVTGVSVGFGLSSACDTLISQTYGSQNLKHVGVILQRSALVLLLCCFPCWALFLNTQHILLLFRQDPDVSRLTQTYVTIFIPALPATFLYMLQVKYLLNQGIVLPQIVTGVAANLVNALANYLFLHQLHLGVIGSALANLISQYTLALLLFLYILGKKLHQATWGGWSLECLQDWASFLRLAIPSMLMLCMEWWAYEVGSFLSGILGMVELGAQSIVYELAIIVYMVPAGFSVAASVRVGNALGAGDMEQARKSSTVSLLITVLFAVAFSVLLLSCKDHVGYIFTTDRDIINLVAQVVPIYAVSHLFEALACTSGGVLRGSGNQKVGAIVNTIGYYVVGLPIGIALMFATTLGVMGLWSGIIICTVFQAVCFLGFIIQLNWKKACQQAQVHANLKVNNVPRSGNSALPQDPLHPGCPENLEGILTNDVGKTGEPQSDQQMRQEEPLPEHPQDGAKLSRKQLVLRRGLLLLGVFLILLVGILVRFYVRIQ
Protocol: as §1, §2
(§5) The intracellular drug concentrations after transport experiments were analyzed by high-performance liquid chromatography coupled to tandem mass spectrometry analysis. The HPLC consisted of a Shimadzu Nexera HPLC System with a SIL-30AC autosampler, a LC-30AD pump, a CTO-20AC column oven, and a CBM-20A controller (Shimadzu). The reverse-phase chromatography of compounds was accomplished with a Brownlee SPP RP-Amide column with 4.6 × 100 mm inner dimensions, a particle size of 2.7 μm, and a preceding Phenomenex C-18 guard column. […] After separation, the detection of substances was performed with an API 4000 tandem mass spectrometer (AB SCIEX, https://sciex.com/support/software-support/software-downloads), followed by quantification of results with the Analyst software (AB SCIEX, version 1.6.2). […]
as §4

SLC47A2 = SLC47A2 (Homo sapiens, UniProt Q86VL8); test: Uptake ratio screen, SLC47A2-overexpressing HEK293 over empty vector cells; assay type: cell-based; details: 2.5 μM, 2 min
Protocol: as §1, §2, §5, §4

SLC35G3 [1] = target: T2, SLC35G3 (Homo sapiens, UniProt Q8N808); details: ratio of Vmax over KM
SLC35F4 = target: T3, SLC35F4 (Homo sapiens, UniProt A4IF30); test: Uptake ratio screen, SLC35F4-overexpressing HEK293 over empty vector cells; assay type: cell-based; parameters: by amplifying the entire gene-of-interest within the HEK293 genome via a long-range PCR; details: 2.5 μM, 2 min
T3 sequence (A4IF30 1-521): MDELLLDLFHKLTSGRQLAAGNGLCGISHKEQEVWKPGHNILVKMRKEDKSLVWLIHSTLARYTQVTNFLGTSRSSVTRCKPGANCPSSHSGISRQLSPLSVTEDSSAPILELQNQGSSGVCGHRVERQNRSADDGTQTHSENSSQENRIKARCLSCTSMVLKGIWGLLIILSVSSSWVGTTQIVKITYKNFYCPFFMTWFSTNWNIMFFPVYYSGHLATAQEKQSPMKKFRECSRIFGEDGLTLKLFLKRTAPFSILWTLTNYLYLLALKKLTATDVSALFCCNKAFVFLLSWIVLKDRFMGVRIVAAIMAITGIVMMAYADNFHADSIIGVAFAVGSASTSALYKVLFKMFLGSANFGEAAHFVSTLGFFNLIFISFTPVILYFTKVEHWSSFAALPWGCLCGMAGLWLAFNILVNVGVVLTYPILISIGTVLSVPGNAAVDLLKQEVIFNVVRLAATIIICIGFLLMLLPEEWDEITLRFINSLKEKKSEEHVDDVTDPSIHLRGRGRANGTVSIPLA
Protocol: as §1, §2, §3, §4

SLC35F5 = target: T4, SLC35F5 (Homo sapiens, UniProt Q8WV83); test: Uptake ratio screen, SLC35F5-overexpressing HEK293 over empty vector cells; assay type: cell-based; parameters: by amplifying the entire gene-of-interest within the HEK293 genome via a long-range PCR; details: 2.5 μM, 2 min
T4 sequence (Q8WV83 1-523): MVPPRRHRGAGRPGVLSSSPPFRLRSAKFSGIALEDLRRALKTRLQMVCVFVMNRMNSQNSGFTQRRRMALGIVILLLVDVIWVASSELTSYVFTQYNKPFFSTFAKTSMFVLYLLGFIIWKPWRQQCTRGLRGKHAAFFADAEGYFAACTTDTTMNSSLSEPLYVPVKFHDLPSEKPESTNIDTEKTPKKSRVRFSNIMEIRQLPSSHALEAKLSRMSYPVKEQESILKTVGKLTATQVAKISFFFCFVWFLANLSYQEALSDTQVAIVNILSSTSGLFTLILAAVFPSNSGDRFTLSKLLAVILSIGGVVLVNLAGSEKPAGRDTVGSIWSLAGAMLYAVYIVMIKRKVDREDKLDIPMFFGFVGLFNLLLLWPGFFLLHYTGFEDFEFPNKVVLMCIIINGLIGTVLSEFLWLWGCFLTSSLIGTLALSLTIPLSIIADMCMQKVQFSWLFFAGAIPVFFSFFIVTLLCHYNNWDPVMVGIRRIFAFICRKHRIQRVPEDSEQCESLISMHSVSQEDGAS
Protocol: as §1, §2, §3, §4

SLC35F2 = target: T5, SLC35F2 (Homo sapiens, UniProt Q8IXU6); details: SLC35F2; ratio of Vmax over KM
T5 sequence (Q8IXU6 1-374): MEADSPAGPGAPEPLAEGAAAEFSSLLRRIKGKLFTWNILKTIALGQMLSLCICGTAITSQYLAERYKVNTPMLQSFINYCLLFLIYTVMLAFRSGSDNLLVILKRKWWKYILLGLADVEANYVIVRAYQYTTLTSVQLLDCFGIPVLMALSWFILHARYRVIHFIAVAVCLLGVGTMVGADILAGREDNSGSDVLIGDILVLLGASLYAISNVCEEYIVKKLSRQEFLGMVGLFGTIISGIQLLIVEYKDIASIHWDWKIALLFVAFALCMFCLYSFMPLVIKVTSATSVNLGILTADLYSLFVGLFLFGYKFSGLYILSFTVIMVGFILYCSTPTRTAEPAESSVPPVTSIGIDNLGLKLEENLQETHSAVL

SLC35E2A [2] = target: T6, SLC35E2A (Homo sapiens, UniProt P0CK97); details: ratio of Vmax over KM
SLC22A15 = target: T7, SLC22A15 (Homo sapiens, UniProt Q8IZD6); test: Uptake ratio screen, SLC22A15-overexpressing HEK293 over empty vector cells; assay type: cell-based; details: 2.5 μM (nicotine 10 μM), 2 min
T7 construct: by amplifying the entire gene-of-interest within the HEK293 genome via a long-range PCR
Protocol: as §1, §2, §3, §4

SLC35E2A [3] = target: T6, SLC35E2A; test: Uptake ratio screen, SLC35E2A-overexpressing HEK293 over empty vector cells; assay type: cell-based; parameters: by amplifying the entire gene-of-interest within the HEK293 genome via a long-range PCR; details: 2.5 μM, 2 min
Protocol: as §1, §2, §5, §4

SLC35G3 [4] = target: T2, SLC35G3; test: Uptake ratio screen, SLC35G3-overexpressing HEK293 over empty vector cells; assay type: cell-based; parameters: by amplifying the entire gene-of-interest within the HEK293 genome via a long-range PCR; details: 2.5 μM substrate, 2 min, HEK293
SLC19A2 = target: T8, SLC19A2 (Homo sapiens, UniProt O60779); test: Uptake ratio screen, SLC19A2-overexpressing HEK293 over empty vector cells; assay type: cell-based; details: 2.5 μM, 2 min
T8 construct: expressed in transfected cells
T8 sequence (O60779 1-497): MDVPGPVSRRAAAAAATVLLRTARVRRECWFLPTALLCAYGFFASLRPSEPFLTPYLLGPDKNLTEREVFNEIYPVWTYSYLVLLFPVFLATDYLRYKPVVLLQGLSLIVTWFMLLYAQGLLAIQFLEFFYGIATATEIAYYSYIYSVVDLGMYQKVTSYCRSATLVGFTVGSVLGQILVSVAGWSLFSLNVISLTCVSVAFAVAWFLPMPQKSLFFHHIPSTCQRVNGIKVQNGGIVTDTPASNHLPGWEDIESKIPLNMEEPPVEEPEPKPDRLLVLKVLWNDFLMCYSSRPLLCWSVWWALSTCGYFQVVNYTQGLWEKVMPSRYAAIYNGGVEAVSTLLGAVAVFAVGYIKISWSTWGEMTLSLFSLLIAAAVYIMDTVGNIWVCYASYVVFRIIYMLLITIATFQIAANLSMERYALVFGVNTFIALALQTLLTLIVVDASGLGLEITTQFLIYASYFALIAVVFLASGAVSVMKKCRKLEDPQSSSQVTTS
Protocol: as §1, §2, §5, §4

SLC19A3 = target: T9, SLC19A3 (Homo sapiens, UniProt Q9BZV2); test: Uptake ratio screen, SLC19A3-overexpressing HEK293 over empty vector cells; assay type: cell-based; details: 2.5 μM, 2 min
T9 construct: expressed in transfected cells
Protocol: as §1
In preparation for transport experiments, 24-well plates were pre-coated with poly-D-lysine (Sigma-Aldrich) and 300,000 cells were plated per well and incubated for 48 h. Firstly, the 24-well plate was placed on a heating plate at 37 °C, and the cells were washed with 37 °C HBSS^+ buffer (Hank’s balanced salt solution supplemented with 10 mM Hepes and adjusted to pH 7.4; Thermo Fisher Scientific). The substance-of-interest, which was diluted in 37 °C HBSS^+ to a desired concentration, was added to the cells for exactly 2 min. […] For variations in seeded cell numbers between the cell lines, several wells were lysed in RIPA buffer and used for total protein quantification using a bicinchoninic assay ([74]) and bovine serum albumin as calibration.
The intracellular drug concentrations after transport experiments were analyzed by high-performance liquid chromatography coupled to tandem mass spectrometry analysis. […] After separation, the detection of substances was performed with an API 4000 tandem mass spectrometer (AB SCIEX, https://sciex.com/support/software-support/software-downloads), followed by quantification of results with the Analyst software (AB SCIEX, version 1.6.2). […]

T6 sequence (P0CK97 whole entry): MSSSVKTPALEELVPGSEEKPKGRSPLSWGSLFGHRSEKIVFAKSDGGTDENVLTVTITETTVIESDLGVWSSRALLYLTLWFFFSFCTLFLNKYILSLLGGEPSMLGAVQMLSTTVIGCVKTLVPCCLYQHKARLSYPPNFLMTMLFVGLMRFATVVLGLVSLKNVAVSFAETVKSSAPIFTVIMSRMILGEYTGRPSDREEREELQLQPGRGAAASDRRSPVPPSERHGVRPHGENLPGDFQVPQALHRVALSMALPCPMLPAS
T2 sequence (Q8N808 whole entry): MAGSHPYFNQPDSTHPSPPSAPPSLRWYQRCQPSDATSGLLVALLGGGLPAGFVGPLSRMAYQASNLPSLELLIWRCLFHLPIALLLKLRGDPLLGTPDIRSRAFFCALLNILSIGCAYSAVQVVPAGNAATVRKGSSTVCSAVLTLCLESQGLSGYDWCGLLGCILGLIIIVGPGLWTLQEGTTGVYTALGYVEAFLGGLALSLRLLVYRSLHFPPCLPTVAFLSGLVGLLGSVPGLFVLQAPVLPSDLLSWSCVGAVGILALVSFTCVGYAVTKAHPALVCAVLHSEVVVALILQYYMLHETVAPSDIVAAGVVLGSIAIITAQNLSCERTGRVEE
T7 sequence (Q8IZD6 whole entry): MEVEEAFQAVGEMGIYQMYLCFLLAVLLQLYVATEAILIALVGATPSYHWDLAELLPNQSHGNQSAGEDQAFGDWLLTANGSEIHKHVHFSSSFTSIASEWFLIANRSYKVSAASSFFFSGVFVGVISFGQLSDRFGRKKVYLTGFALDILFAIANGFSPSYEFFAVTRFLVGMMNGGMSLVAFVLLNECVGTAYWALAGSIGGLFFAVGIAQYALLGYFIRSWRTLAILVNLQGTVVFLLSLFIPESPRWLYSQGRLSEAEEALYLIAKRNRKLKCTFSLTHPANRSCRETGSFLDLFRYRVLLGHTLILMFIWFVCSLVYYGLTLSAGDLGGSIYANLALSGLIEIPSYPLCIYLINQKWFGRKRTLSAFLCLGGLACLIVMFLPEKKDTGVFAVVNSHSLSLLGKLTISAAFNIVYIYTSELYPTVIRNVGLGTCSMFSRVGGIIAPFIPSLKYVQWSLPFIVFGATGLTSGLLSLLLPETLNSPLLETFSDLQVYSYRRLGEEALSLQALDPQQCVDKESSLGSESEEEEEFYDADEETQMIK
Sequence of OCT1 (O15245 whole entry): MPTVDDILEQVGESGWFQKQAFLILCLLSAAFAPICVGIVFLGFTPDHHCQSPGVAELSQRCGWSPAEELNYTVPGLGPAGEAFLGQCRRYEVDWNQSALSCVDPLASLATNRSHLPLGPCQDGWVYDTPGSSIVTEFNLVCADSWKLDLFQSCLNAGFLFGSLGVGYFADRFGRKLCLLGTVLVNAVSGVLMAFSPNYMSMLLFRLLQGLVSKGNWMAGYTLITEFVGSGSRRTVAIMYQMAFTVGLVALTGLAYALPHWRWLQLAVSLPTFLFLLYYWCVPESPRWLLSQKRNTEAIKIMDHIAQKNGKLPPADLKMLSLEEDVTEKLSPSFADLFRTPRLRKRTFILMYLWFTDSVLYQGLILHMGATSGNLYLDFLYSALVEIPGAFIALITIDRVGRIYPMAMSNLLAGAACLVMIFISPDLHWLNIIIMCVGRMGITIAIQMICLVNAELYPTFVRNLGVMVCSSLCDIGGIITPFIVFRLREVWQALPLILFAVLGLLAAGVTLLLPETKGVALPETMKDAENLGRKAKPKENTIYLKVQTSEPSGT
T9 sequence (Q9BZV2 whole entry): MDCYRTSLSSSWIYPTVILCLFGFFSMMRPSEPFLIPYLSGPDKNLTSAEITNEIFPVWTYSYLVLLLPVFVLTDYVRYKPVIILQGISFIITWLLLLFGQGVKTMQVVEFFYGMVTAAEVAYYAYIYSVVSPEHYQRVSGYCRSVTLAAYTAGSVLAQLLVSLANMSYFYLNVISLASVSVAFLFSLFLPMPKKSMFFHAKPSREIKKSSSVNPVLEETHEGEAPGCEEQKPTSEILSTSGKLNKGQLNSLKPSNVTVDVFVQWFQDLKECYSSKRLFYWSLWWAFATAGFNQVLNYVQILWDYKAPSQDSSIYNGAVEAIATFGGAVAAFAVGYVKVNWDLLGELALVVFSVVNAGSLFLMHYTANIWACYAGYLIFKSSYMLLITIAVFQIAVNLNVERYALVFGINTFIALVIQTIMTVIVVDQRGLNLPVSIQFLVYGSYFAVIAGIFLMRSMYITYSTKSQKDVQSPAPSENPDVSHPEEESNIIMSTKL
Sequence of SLC47A2 (Q86VL8 1-566 isoform Q86VL8-3): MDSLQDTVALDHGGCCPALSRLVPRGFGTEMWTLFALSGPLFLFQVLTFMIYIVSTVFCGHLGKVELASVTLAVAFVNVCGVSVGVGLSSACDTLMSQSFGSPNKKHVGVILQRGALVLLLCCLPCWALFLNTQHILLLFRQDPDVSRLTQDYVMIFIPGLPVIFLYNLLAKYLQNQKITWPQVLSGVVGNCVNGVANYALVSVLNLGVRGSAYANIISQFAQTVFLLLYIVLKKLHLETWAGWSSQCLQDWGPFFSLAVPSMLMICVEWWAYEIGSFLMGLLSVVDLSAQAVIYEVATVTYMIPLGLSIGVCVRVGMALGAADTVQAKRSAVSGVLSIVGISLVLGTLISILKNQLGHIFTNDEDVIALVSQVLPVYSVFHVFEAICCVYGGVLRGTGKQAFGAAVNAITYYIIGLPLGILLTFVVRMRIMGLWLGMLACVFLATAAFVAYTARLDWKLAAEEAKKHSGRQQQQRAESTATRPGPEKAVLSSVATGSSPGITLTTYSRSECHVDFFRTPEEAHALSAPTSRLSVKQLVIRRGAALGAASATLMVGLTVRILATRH
Sequence of OCT2 (O15244 whole entry): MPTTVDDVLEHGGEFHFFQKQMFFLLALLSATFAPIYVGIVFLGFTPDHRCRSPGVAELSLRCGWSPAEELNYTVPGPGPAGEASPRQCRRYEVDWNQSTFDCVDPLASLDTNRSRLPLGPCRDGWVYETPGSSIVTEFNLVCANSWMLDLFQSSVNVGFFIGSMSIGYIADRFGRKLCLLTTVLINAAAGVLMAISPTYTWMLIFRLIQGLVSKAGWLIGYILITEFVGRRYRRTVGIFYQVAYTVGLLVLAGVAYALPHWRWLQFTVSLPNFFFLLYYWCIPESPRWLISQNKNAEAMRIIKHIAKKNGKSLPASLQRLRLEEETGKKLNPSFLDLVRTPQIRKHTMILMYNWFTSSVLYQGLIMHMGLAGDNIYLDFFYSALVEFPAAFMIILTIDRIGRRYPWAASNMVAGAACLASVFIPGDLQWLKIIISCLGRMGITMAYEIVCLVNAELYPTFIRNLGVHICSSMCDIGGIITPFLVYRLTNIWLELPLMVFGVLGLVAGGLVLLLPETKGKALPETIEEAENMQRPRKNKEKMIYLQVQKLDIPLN

Nc1nc(=O)n([C@@H]2CS[C@H](CO)O2)cc1F [emtricitabine]
Uptake by OCT2 (in words) (OCT2): to some extent
Uptake by OCT1 (in words) (OCT1): to some extent
Uptake by SLC47A1 (MATE1) (in words) (SLC47A1): only transported by the MATEs
Uptake by SLC47A2 (MATE2K) (in words) (SLC47A2): only transported by the MATEs

COC(=O)[C@H]1[C@@H](OC(=O)c2ccccc2)C[C@@H]2CC[C@H]1N2C [Cocaine]
Clint (±SEM) (SLC35G3 [1]): 1.59 (±0.57) μl × mg protein^-1 × min^-1
Uptake by SLC35F4 (in words) (SLC35F4): enhanced cell uptake
Uptake by SLC35F5 (in words) (SLC35F5): highest uptake rates
Clint (±SEM) (SLC35F2): 2.58 (±2.11) μl × mg protein^-1 × min^-1
Clint (±SEM) (SLC35E2A [2]): 4.14 (±1.59) μl × mg protein^-1 × min^-1
Uptake by SLC22A15 (in words) (SLC22A15): significantly increased the uptake
Uptake by SLC35E2A (in words) (SLC35E2A [3]): relatively high activity
Uptake data for SLC35G3, mean value (fold-increase over empty vector control) (SLC35G3 [4]): 2.02

COc1ccc2c3c1O[C@H]1C(=O)CC[C@@]4(O)[C@@H](C2)N(C)CC[C@]314 [Oxycodone]
Clint (±SEM) (SLC35E2A [2]): 3.44 (±1.49) μl × mg protein^-1 × min^-1
Uptake by SLC22A15 (in words) (SLC22A15): significantly increased the uptake
Uptake by SLC19A2 (in words) (SLC19A2): enhance cell uptake
Uptake by SLC35E2A (in words) (SLC35E2A [3]): relatively high activity
Uptake data for SLC35G3, mean value (fold-increase over empty vector control) (SLC35G3 [4]): 1.86

C[n+]1ccc(-c2ccccc2)cc1 [MPP^+, 1-methyl-4-phenylpyridinium]
Uptake by SLC19A3 (in words) (SLC19A3): moderate
